Experimental data from article PMC12410356 (International Journal for Parasitology: Drugs and Drug …, 2025).
Read-outs that look alike come from different tables or passages of the source.

System: Reuber rat hepatoma (RH) cells
Assay: Mammalian cell toxicity, resazurin assay
Type: cell-based
Details: for IC50: 5 days incubation, mean ± SD
Procedure: Mammalian cell toxicity on RH cells was measured as described in [Rufener et al. (2018)] with few alterations. Briefly, confluent (50′000 cells/well) and pre-confluent (5′000 cells/well) were seeded into 96-well plates in DMEM supplemented with 10 % FBS, penicillin (100 U/mL), streptomycin (100 μg/mL) and tetracycline (5 μg/mL) and incubated at 37 °C under a humid, 5 % CO2 atmosphere for 24 h and 5 h respectively. Alexidine, ESI-09 and MMV1581545 were added to final concentrations ranging from 120 to 0.49 μM (1:3 serial dilution) to each well and then cells were incubated at 37 °C under a humid, 5 % CO2 atmosphere for 5 days. To measure viability, the medium was removed, 180 μL of PBS was added to the cells and resazurin was added to each well to a final concentration of 10 mg/L. The cells were then allowed to process the resazurin at RT for 1 h. Fluorescence was measured on a HIDEX Sense microplate reader. Measurements were performed in triplicates and IC50 values were calculated in R using the three parameter Weibull type 1 model for three independent experiments ([Ritler et al., 2020]).

SMILES: CC(C)(C)c1cc(C(=O)/C(C#N)=N/Nc2cccc(Cl)c2)no1 [ESI-09]
- toxicity against mammalian cell line (in words) (RH cells counter-screen): moderate toxicity
- IC50 (Rattus norvegicus, 120 h, confluent, read-out: IC50 confluent RH cells): 37.3 ± 0.73 µM
- IC50 (Rattus norvegicus, 120 h, pre-confluent, read-out: IC50 pre-confluent RH cells): 9.02 ± 1.3 µM
- IC50 (pre-confluent, read-out: IC50 pre-confluent RH cells): 9.03 ± 1.3 µM
